US9700632B2, “Dendrimers, conjugates and methods thereof” (Centre for BioSeparation Technology—VIT, priority 2012, dated 2017)
Converted amounts (≈) assume the structure as drawn.

How the values were obtained:
[1] = test system: HCT-15 human colon cancer cells; test: cells; conditions: HCT-15, 48 h, read-out: IC50 HCT-15
Procedure: Cells are incubated for 48 hr with different equivalent doxorubicin concentrations and IC50 values in terms of doxorubicin were calculated using MTT assay.

[2] = test system: PC3 prostate cancer cells; test: cells; conditions: Homo sapiens, PC-3, 48 h, read-out: IC50 PC3
[3] = test system: PC3 cells; test: MTT cytotoxicity assay of lupeol and dendrimer-lupeol conjugates; type: cell-based; conditions: Homo sapiens, PC-3, 48 h, read-out: percentage inhibition (cytotoxic effect, MTT)
Procedure: Human prostate cancer cells (PC-3 cells) are obtained from NCCS, Pune, India. The cells are grown in RPMI 1640 medium supplemented with 10% of bovine fetal serum and antibiotics (100 IU of penicillin/[…] of streptomycin). The cells are maintained in a 25 cm^2 T-flask and incubated at 37° C. under 5% CO2 in a humidified atmosphere. The cell viability is measured by staining the cells with trypan blue and counted in a haemocytometer under a light microscope.
The assay is performed in triplicates.
The cytotoxicity is quantitatively estimated by a non-radioactive, colorimetric assay system using a tetrazolium salt, 3-[4,5-dimethylthiazol-2-yl]-2,5-diphenil-tetrazolium bromide (MTT).
The cytotoxic effect of lupeol and the dendrimer lupeol conjugate is determined using PC3 cells. […] Doxorubicin is used as positive control for each experiment. […] This clearly showcases that the increase in cytotoxic activity of the dendrimer-lupeol conjugate is not due to the dendrimer or lupeol alone but because of the conjugate of dendrimer and lupeol.

Molecule COc1cccc2c1C(=O)c1c(O)c3c(c(O)c1C2=O)C[C@@](O)(C(=O)CO)C[C@@H]3O[C@H]1C[C@H](N)[C@H](O)[C@H](C)O1 [Free doxorubicin, doxorubicin] has an IC50 [1] of 4.77 µg/mL (≈ 8.78 µM) and an IC50 [2] of 5.13 µg/mL (≈ 9.45 µM).
C=C(C)[C@@H]1CC[C@]2(C)CC[C@]3(C)[C@H](CC[C@@H]4[C@@]5(C)CC[C@H](O)C(C)(C)[C@@H]5CC[C@]43C)[C@@H]12 [free lupeol, lupeol] was tested, and the inhibition at 10 µg/mL [3] was 7.74%.
